Test results published in PubChem BioAssay (NCI).
“And” between values parts separate entries of the source, which are not always exact repeats. Equal entries are not always repeated.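 Step 1: Grow cells in 96-well plates. Step 2: Expose to compound for 48 hours at 5 concentrations. Step 3: Interpolate endpoints linearly; if unreached, use highest concentration. GI50 is the concentration that inhibits growth by half. TGI: concentration producing complete growth inhibition.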

Columns and labels:
Experiment in all cases: NCI anticancer screen, dose series, 48 h
OVCAR-4 ovarian = tested on: OVCAR-4 ovarian
UACC-62 melanoma = tested on: UACC-62 melanoma
OVCAR-5 ovarian = tested on: OVCAR-5 ovarian
786-0 renal = tested on: 786-0 renal
NCI-H460 lung = tested on: NCI-H460 lung
RPMI-8226 leukemia = tested on: RPMI-8226 leukemia
MCF7 breast = tested on: MCF7 breast
UACC-257 melanoma = tested on: UACC-257 melanoma
MALME-3M melanoma = tested on: MALME-3M melanoma
OVCAR-8 ovarian = tested on: OVCAR-8 ovarian

SMILES	GI50 (OVCAR-4 ovarian) [µM]	TGI (OVCAR-4 ovarian)	GI50 (UACC-62 melanoma) [µM]	TGI (UACC-62 melanoma)	GI50 (OVCAR-5 ovarian) [µM]	TGI (OVCAR-5 ovarian)	GI50 (786-0 renal) [µM]	TGI (786-0 renal)	GI50 (NCI-H460 lung) [µM]	TGI (NCI-H460 lung)	GI50 (RPMI-8226 leukemia) [µM]	TGI (RPMI-8226 leukemia) [µM]	GI50 (MCF7 breast) [µM]	TGI (MCF7 breast)	GI50 (UACC-257 melanoma) [µM]	TGI (UACC-257 melanoma)	GI50 (MALME-3M melanoma) [µM]	TGI (MALME-3M melanoma)	GI50 (OVCAR-8 ovarian) [µM]	TGI (OVCAR-8 ovarian)
Cc1ccn2c3c(c(C(=O)O)c2c1)C(=O)c1ccccc1C3=O	12.6	> 100 µM	2.44	9.13 µM	30.5	> 100 µM	> 87.4	> 100 µM	1.36	3.07 µM	> 100	> 100	6.52	97.2 µM	4.41	> 60.3 µM	0.48	1.92 µM	> 100	> 100 µM
Cc1cc2nc3c4cc(Cl)ccc4n(CCN(C)C)c3nc2cc1C	1.72	9.08 µM	1.65	3.3 µM	2	5.2 µM	1.81	4.22 µM	1.34	2.85 µM	1.55	4.12	1.06	2.49 µM	1.76	3.59 µM	1.72	3.33 µM	1.4	6.33 µM
Clc1ccccc1C(c1ccccc1)(c1ccccc1)n1ccnc1	2.95	15.5 µM and 41.3 µM	1.44	6.68 µM and 27.9 µM	4.05	15.5 µM and 29.8 µM	3.05	10.6 µM and 43 µM	2.9	9.53 µM and 29.8 µM	–	> 62.7	2.89	11.8 µM and 24.7 µM	3.43	14.2 µM and 25.2 µM	1.74	7.24 µM and 16.9 µM	2.69	20 µM and 26.3 µM
C=CC(=O)N[C@H]1C=C(C)c2c(-c3cnc4ccccc4c3)c3c(N)ncnc3n2C1	13.5	> 100 µM	8.05	24.8 µM	21.2	93.3 µM	5.14	36.8 µM	18.1	72.8 µM	17.9	60.6	21.1	> 100 µM	13.4	> 80.4 µM	11.6	25.7 µM	16.7	> 100 µM
Oc1ccccc1/C=N/Nc1ccc2ccccc2n1	2.42	18.6 µM	3.17	> 100 µM	8.31	> 100 µM	5.81	> 100 µM	3.38	20.3 µM	3.45	> 100	4.92	91.5 µM	3.14	9.57 µM	8.18	> 100 µM	4.23	59.1 µM
C#Cc1cnc(=O)n(C2CC(O)C(CO)O2)c1 (centres undefined)	> 100	> 100 µM	> 100	> 100 µM	> 100	> 100 µM	> 100	> 100 µM	> 78.5	> 100 µM	8.51	> 22.8	> 100	> 100 µM	> 54.5	98.1 µM	> 100	> 100 µM	> 100	> 100 µM
COc1ccc(C(=S)N2CCN(c3cccc(Cl)c3)CC2)cc1	> 100	> 100 µM	78.2	> 100 µM	> 100	> 100 µM	> 100	> 100 µM	> 100	> 100 µM	45.4	> 100	75	> 100 µM	> 100	> 100 µM	> 100	> 100 µM	> 100	> 100 µM
Cc1nn(-c2ccc(F)cc2)c2ncnc(Nc3ccc(NC(=O)Nc4ccc(Cl)c(C(F)(F)F)c4)cc3)c12	2.46	7.13 µM	2.65	11.3 µM	2.81	11.9 µM	1.98	5.85 µM	2.35	6.01 µM	1.71	9.54	2.11	6.67 µM	2.25	5.99 µM	1.76	4.21 µM	2.87	10 µM
COc1ccc(-c2nn(-c3cccc(Cl)c3)cc2C2CC(c3ccccc3)=NN2C(C)=O)cc1 (centres undefined)	3.38	29.2 µM	15.3	> 100 µM	> 100	> 100 µM	6.87	97.2 µM	4.17	> 100 µM	> 100	> 100	> 100	> 100 µM	32.1	> 100 µM	4.87	35.2 µM	4.75	> 100 µM
Fc1cccc(COc2ccc(Nc3ncncc3C#Cc3ccccc3)cc2Cl)c1	> 25	> 25 µM	> 25	> 25 µM	> 25	> 25 µM	> 25	> 25 µM	> 25	> 25 µM	> 25	> 25	> 25	> 25 µM	> 25	> 25 µM	> 25	> 25 µM	> 25	> 25 µM
